# Patent US20210380547A1, “UREA DERIVATIVES FOR TREATING AND/OR PREVENTING CANCER” (CENTRE NATIONAL DE LA RECHERCHE SCIENTIFIQUE, priority 2018, published 2021)
# Read-outs that look alike come from different tables or passages of the source.
# Legend:
# MDA-MB-231 = test: XTT cell viability assay, MDA-MB-231; format: cell-based; details: Homo sapiens, XTT assay (48 h), standard deviation of 10%, read-out: EC50 (μM) Breast MDA-MB-231
# Procedure: (§1) Fifty microliters of sodium 3′-[1-phenylaminocarbonyl)-3,4-tetrazolium]-bis(4-methoxy-6-nitro) benzene sulfonic acid hydrate (XTT) reagent was added to each well. The assay is based on the cleavage of the yellow tetrazolium salt XTT to form an orange formazan dye by metabolically active cells. The absorbance of the formazan product, reflecting cell viability, was measured at 490 nm. Each assay was performed in quadruplicate.
# (§2) Compounds #1-#14 have been assayed as potential anti-proliferative agents against a panel of human breast head and neck, and kidney tumor cells and hematological malignancies, selected on the basis of their aggressiveness (e.g. incurable triple-negative breast cancer cells: MDA-MB-231; kidney ccRCC cells: RCC4, A498 and 786-O and 786R; head and neck cancer cells: CAL33, CAL33RR, CAL27, and CAL27RR; acute myeloid cell lines: OCI-AML2, OCI-AML3, MolM13, and MolM14; myelodysplastic cell line: SM1; and chronic myeloid cell line: CML). All these cell lines share as common denominator the expression of CXCR1 and CXCR2. The EC50 values have been measured by a XTT colorimetric assay, and compared to those of SB-225002, used as a reference; the results are listed in Table 1.
# RCC4 = test: XTT cell viability assay, RCC4; format: cell-based; details: Homo sapiens, XTT assay (48 h), standard deviation of 10%, read-out: EC50 (μM) Kidney RCC4
# Procedure: as §1, §2
# OCI-AML2 = test: XTT cell viability assay, OCI-AML2; format: cell-based, human; details: XTT assay (48 h), standard deviation of 10%, read-out: EC50 (μM) AML OCI-AML2
# Procedure: as §1, §2
# MolM13 = test: XTT cell viability assay, MolM13; format: cell-based, human; details: XTT assay (48 h), standard deviation of 10%, read-out: EC50 (μM) AML MolM13
# Procedure: as §1, §2
# K562 = test: XTT cell viability assay, K562; format: cell-based, human; details: XTT assay (48 h), standard deviation of 10%, read-out: EC50 (μM) CML K562
# Procedure: as §1, §2
# OCI-AML3 = test: XTT cell viability assay, OCI-AML3; format: cell-based, human; details: XTT assay (48 h), standard deviation of 10%
# Procedure: as §1, §2
# MolM14 = test: XTT cell viability assay, MolM14; format: cell-based, human; details: XTT assay (48 h), standard deviation of 10%, read-out: EC50 (μM) AML MolM14
# Procedure: as §1, §2
# SKM1 = test: XTT cell viability assay, SKM1; format: cell-based, human; details: XTT assay (48 h), standard deviation of 10%, read-out: EC50 (μM) MDS SKM1
# Procedure: as §1, §2
# 786-O = test: XTT cell viability assay, 786-O; format: cell-based, human; details: Homo sapiens, 786-0; XTT assay (48 h); standard deviation of 10%; read-out: EC50 (μM) Kidney 786-O
# Procedure: (§3) A, B: Naive (786-O, A), and sunitinib-resistant (786-R, B) 786-O cells, were treated with compound #1 or sunitinib (1 to 10 μM) for 48 hr. Cell viability was measured by XTT assays;
# (§4) D, E: 786-O (D), 786-R (E), were treated with 2.5 μM compound #1 or 2.5 μM sunitinib for 24 h to 96 h. The cells metabolism was measured by XTT assay;
# as §1, §2
# A498 = test: XTT cell viability assay, A498; format: cell-based, human; details: XTT assay (48 h), standard deviation of 10%, read-out: EC50 (μM) Kidney A498
# Procedure: as §1, §2
# CAL27 = test: XTT cell viability assay, CAL27; format: cell-based, human; details: Homo sapiens, CAL-27, 48 h, XTT assay (48 h); standard deviation of 10%; read-out: EC50 (μM) Head and Neck CAL27
# Procedure: (§5) A, B: Naive (Cal27, A), and cisplatine-resistant (Cal27R, B) Cal27 cells, were treated with compound #1 or cisplatine (1 to 10 μM) for 48 hr. Cell viability was measured by XTT assays;
# (§6) C, D: Cal27 (C), cal27R (D), were treated with 2.5 μM compound #1, 2.5 μM cisplatin for 24 h to 96 h. The metabolism of cells was measured by XTT assay.
# as §1, §2
# 786R = test: XTT cell viability assay, 786R (sunitinib-resistant); format: cell-based, human; details: Homo sapiens, 48 h, XTT assay (48 h); sunitinib-resistant; standard deviation of 10%; read-out: EC50 (μM) Kidney 786R
# Procedure: as §3, §4, §1, §2
# CAL33RR = test: XTT cell viability assay, CAL33RR; format: cell-based; details: Homo sapiens, light or radiation study; XTT assay (48 h); resistant to irradiation and cisplatin; standard deviation of 10%; read-out: EC50 (μM) Head and Neck CAL33RR
# Procedure: as §1, §2
# CAL33 = test: XTT cell viability assay, CAL33; format: cell-based; details: Homo sapiens, CAL-33; XTT assay (48 h); standard deviation of 10%; read-out: EC50 (μM) Head and Neck CAL33
# Procedure: as §1, §2
# CAL27RR = test: XTT cell viability assay, CAL27RR (cisplatin-resistant); format: cell-based, human; details: Homo sapiens, light or radiation study; XTT assay (48 h); resistant to irradiation and cisplatin; standard deviation of 10%; read-out: EC50 (μM) Head and Neck CAL27RR
# Procedure: as §5, §6, §1, §2
SMILES,EC50 (MDA-MB-231) [µM],EC50 (RCC4) [µM],"EC50 (OCI-AML2; Homo sapiens, OCI-AML2) [µM]","EC50 (MolM13; Homo sapiens, MOLM-13) [µM]","EC50 (K562; Homo sapiens, K562) [µM]","EC50 (OCI-AML3; Homo sapiens, OCI-AML-3) [µM]","EC50 (MolM14; Homo sapiens, MOLM-14) [µM]","EC50 (SKM1; Homo sapiens, SKM-1) [µM]",EC50 (786-O) [µM],"EC50 (A498; Homo sapiens, A498) [µM]",EC50 (CAL27) [µM],EC50 (786R) [µM],EC50 (CAL33RR) [µM],EC50 (CAL33) [µM],further results
"O=C(Nc1nc2ccccc2s1)Nc1ccccc1Cl [Compound #7, 1-(benzo[d]thiazol-2-yl)-3-(2-chlorophenyl)urea]",> 25,25,10,> 25,> 25,> 25,> 25,> 25,> 25,> 25,,,,,
"O=C(Nc1cccc(Cl)c1)Nc1nc2ccc([N+](=O)[O-])cc2[nH]1 [Compound #14, 1-(3-chlorophenyl)-3-(6-nitro-1H-benzo[d]imidazol-2-yl)urea]",,3,,,,,,,4,5,15,4,25,15,EC50 (CAL27RR): 10 µM
"COc1ccc(NC(=O)Nc2nc3ccccc3s2)cc1 [Compound #10, 1-(benzo[d]thiazol-2-yl)-3-(4-methoxyphenyl)urea]",> 25,15,> 25,> 25,25,> 25,> 25,> 25,> 25,> 25,,,,,
"O=C(Nc1ccccc1)Nc1nc2ccccc2o1 [Compound #5-1, 1-(benzo[d]oxazol-2-yl)-3-phenylurea, reference compound]",> 25,> 25,> 25,> 25,> 25,> 25,> 25,> 25,> 25,> 25,,,,,
"O=C(Nc1cccc(Cl)c1)Nc1nc2ccccc2s1 [Compound #8, 1-(benzo[d]thiazol-2-yl)-3-(3-chlorophenyl)urea]",> 25,20,> 25,> 25,25,> 25,> 25,> 25,> 25,> 25,,,,,
"O=C(Nc1ccc(Cl)cc1)Nc1nc2ccccc2[nH]1 [Compound #6, 1-(1H-benzo[d]imidazol-2-yl)-3-(4-chlorophenyl)urea]",20,20,20,> 25,12,22,20,> 25,20,9,,,,,
"O=C(Nc1ccc(Cl)cc1)Nc1nc2ccccc2s1 [Compound #9, 1-(benzo[d]thiazol-2-yl)-3-(4-chlorophenyl)urea]",> 25,20,> 25,> 25,25,> 25,> 25,> 25,> 25,25,,,,,
"O=C(Nc1cc(Cl)cc(Cl)c1)Nc1nc2ccc([N+](=O)[O-])cc2s1 [Compound #11, 1-(3,5-dichlorophenyl)-3-(6-nitrobenzo[d]thiazol-2-yl)urea]",,2,,,,,,,5,2.5,2.5,5,4,4,EC50 (CAL27RR): 2.5 µM
"O=C(Nc1ccccc1)Nc1nc2ccccc2[nH]1 [Compound #5, 1-(1H-benzo[d]imidazol-2-yl)-3-phenylurea]",12,25,18,25,10,25,20,25,20,10,,,,,
"O=C(Nc1ccc(Br)cc1)Nc1nc2ccc([N+](=O)[O-])cc2s1 [Compound #12, 1-(4-bromophenyl)-3-(6-nitrobenzo[d]thiazol-2-yl)urea]",,7,,,,,,,5,7,5,5,20,< 2.5,EC50 (CAL27RR): 2.5 µM
"O=C(Nc1nc2ccc([N+](=O)[O-])cc2s1)Nc1ccccc1Br [Compound #13, 1-(2-bromophenyl)-3-(6-nitrobenzo[d]thiazol-2-yl)urea]",,25,,,,,,,15,20,> 25,14,> 25,8,
"Cc1ccc2nc(NC(=O)Nc3ccccc3Cl)sc2c1 [Compound #4, 1-(2-chlorophenyl)-3-(6-methylbenzo[d]thiazol-2-yl)urea]",> 25,> 25,> 25,15,25,10,10,25,15,15,,,,,
"O=C(Nc1ccc([N+](=O)[O-])cc1O)Nc1ccccc1Br [SB-225002, reference compound]",,,,,,,,,,,,,,,EC50 (OCI-AML2): > 100 µM; EC50 (MolM13): > 100 µM; EC50 (K562): > 100 µM; EC50 (OCI-AML3; read-out: EC50 (μM) AML OCI-AML3): 90 µM; EC50 (MolM14): 90 µM; EC50 (SKM1): > 100 µM; EC50 (A498): 70 µM
